Data reported in ChEMBL document CHEMBL5576091, “2'-β-Methylselenyl nucleos(t)ide analogs as reverse transcriptase inhibitors against diverse HIV mutants” (Bioorg Med Chem, 2024).
Calls of active or inactive are those of the source. No cut-off for these calls is given here.

Key:
[1] = Cytotoxicity against human MT4 cells assessed as reduction in cell viability incubated for 5 days by MTT assay; format: toxicity, cell-based; details: time 5 day
[2] = tested on: Human immunodeficiency virus 1; assay: Antiviral activity against wild type HIV-1 infected in human TZM-bl cells incubated for 48 hrs by steady glo reagent based […] luminometer analysis; format: functional, organism-based; details: Human immunodeficiency virus 1, TZM-bl
[3] = Cytotoxicity against human TZM-bl cells assessed as reduction in cell viability incubated for 48 hrs by MTT assay; format: toxicity, cell-based
[4] = tested on: Human immunodeficiency virus 1; assay: Antiviral activity against multidrug resistant HIV-1 harboring RT M41L/T69SSG/T215Y mutant infected in human TZM-bl cells incubated for 48 hrs by steady glo reagent based […] luminometer analysis; format: functional, organism-based; details: Human immunodeficiency virus 1, TZM-bl
[5] = tested on: Human immunodeficiency virus 1; assay: Antiviral activity against lamivudine resistant HIV-1 harboring RT M184V mutant infected in human TZM-bl cells incubated for 48 hrs by steady glo reagent based […] luminometer analysis; format: functional, organism-based; details: Human immunodeficiency virus 1, TZM-bl
[6] = tested on: Human immunodeficiency virus 1; assay: Antiviral activity against azidothymidine resistant HIV-1 harboring RT M41L/T215Y mutant infected in human TZM-bl cells incubated for 48 hrs by steady glo reagent based […] luminometer analysis; format: functional, organism-based; details: Human immunodeficiency virus 1, TZM-bl
[7] = molecular target: Human immunodeficiency virus type 1 reverse transcriptase (Human immunodeficiency virus 1) (UniProt Q72547); assay: (§1) Substrate activity at HIV-1 reverse transcriptase assessed as formation of single elongation product at 100 uM incubated for 60 mins in presence of FAM labeled 13-mer primer DNA, 20-mer template RNA, dNTPs by fluorescence based primer extension assay
[8] = molecular target: Human immunodeficiency virus type 1 reverse transcriptase (Human immunodeficiency virus 1) (UniProt Q72547); assay: Substrate activity at HIV-1 reverse transcriptase assessed as mismatch elongation mediated 19-mer product formation at 50 to 400 uM incubated for 60 mins in presence of 14.4 ng/uL enzyme, FAM labeled primer DNA, template RNA, dNTPs by fluorescence based primer extension assay; details: dose 50-400 µM
[9] = molecular target: Human immunodeficiency virus type 1 reverse transcriptase (Human immunodeficiency virus 1) (UniProt Q72547); assay: Substrate activity at HIV-1 reverse transcriptase assessed as 14-mer product formation incubated for 60 mins in presence of 14.4 ng/uL enzyme, FAM labeled primer DNA, template RNA, dNTPs by fluorescence based primer extension assay; details: dose 50-400 µM
[10] = molecular target: Human immunodeficiency virus type 1 reverse transcriptase (Human immunodeficiency virus 1) (UniProt Q72547); assay: (§2) Substrate activity at HIV-1 reverse transcriptase assessed as formation of single elongation product by measuring elongation efficiency at 400 uM incubated for 5 mins in presence of 14.4 ng/uL enzyme, FAM labeled 13-mer primer DNA, 20-mer template RNA, dNTPs by fluorescence based primer extension assay relative to control
[11] = organism: Homo sapiens; assay: Substrate activity at Phi29 DNA polymerase (unknown origin) assessed as incorporation into DNA incubated for 60 mins in presence of FAM labeled primer DNA, template DNA, dNTPs by fluorescence based primer extension assay
[12] = tested on: Avian myeloblastosis virus; assay: Substrate activity at Avian myeloblastosis virus reverse transcriptase assessed as incorporation into DNA incubated for 60 mins in presence of FAM labeled primer DNA, template DNA, dNTPs by fluorescence based primer extension assay
[13] = molecular target: Human immunodeficiency virus type 1 reverse transcriptase (Human immunodeficiency virus 1) (UniProt Q72547); assay: as §2, with “60” for “5”, “3.6” for “14.4”
[14] = molecular target: Human immunodeficiency virus type 1 reverse transcriptase (Human immunodeficiency virus 1) (UniProt Q72547); assay: Substrate activity at HIV-1 reverse transcriptase assessed as formation of multiple elongation products at 50 to 400 uM incubated for 60 mins in presence of 14.4 ng/uL enzyme, FAM labeled primer DNA, template RNA, dNTPs by fluorescence based primer extension assay; details: dose 50-400 µM
[15] = organism: Homo sapiens; assay: Substrate activity at Taq DNA polymerase (unknown origin) assessed as incorporation into DNA incubated for 60 mins in presence of FAM labeled primer DNA, template DNA, dNTPs by fluorescence based primer extension assay
[16] = molecular target: Human immunodeficiency virus type 1 reverse transcriptase (Human immunodeficiency virus 1) (UniProt Q72547); assay: Substrate activity at HIV-1 reverse transcriptase assessed as formation of single elongation product at 400 uM in presence of 3.6 ng/uL enzyme, FAM labeled 13-mer primer DNA, 20-mer template RNA, dNTPs by fluorescence based primer extension assay; details: time 0-60 min, TDE = time-dependent effect
[17] = molecular target: Human immunodeficiency virus type 1 reverse transcriptase (Human immunodeficiency virus 1) (UniProt Q72547); assay: Substrate activity at HIV-1 reverse transcriptase assessed as formation of single elongation product at 50 to 400 uM incubated for 60 mins in presence of 14.4 ng/uL enzyme, FAM labeled primer DNA, template RNA, dNTPs by fluorescence based primer extension assay; details: dose 50-400 µM
[18] = molecular target: Human immunodeficiency virus type 1 reverse transcriptase (Human immunodeficiency virus 1) (UniProt Q72547); assay: Substrate activity at HIV-1 reverse transcriptase assessed as 15-mer product formation incubated for 60 mins in presence of 14.4 ng/uL enzyme, FAM labeled primer DNA, template RNA, dNTPs by fluorescence based primer extension assay; details: dose 50-400 µM
[19] = molecular target: Human immunodeficiency virus type 1 reverse transcriptase (Human immunodeficiency virus 1) (UniProt Q72547); assay: Substrate activity at HIV-1 reverse transcriptase assessed as mismatch elongation mediated 20-mer product formation at 50 to 400 uM incubated for 60 mins in presence of 14.4 ng/uL enzyme, FAM labeled primer DNA, template RNA, dNTPs by fluorescence based primer extension assay; details: dose 50-400 µM
[20] = molecular target: Human immunodeficiency virus type 1 reverse transcriptase (Human immunodeficiency virus 1) (UniProt Q72547); assay: as §2, with “60” for “5”
[21] = molecular target: Human immunodeficiency virus type 1 reverse transcriptase (Human immunodeficiency virus 1) (UniProt Q72547); assay: as §1, with “product by measuring elongation efficiency” for “product”, “assay relative to control” for “assay”
[22] = molecular target: Human immunodeficiency virus type 1 reverse transcriptase (Human immunodeficiency virus 1) (UniProt Q72547); assay: Substrate activity at HIV-1 reverse transcriptase assessed as increase in multiple base elongation product at 100 uM in presence of FAM labeled 13-mer primer DNA, 20-mer template RNA, dNTPs by fluorescence based primer extension assay; details: time 0-60 min, TDE = time-dependent effect

Compound | CC50 at 120 h [1] [µM] | EC50 [2] [µM] | CC50 at 48 h [3] [µM] | EC50 [4] [µM] | EC50 [5] [µM] | EC50 [6] [µM] | also measured
COc1nc(N)nc2c1ncn2[C@@H]1O[C@H](CO)[C@@H](O)[C@@H]1[Se]C | > 100 | > 20 | > 100 | > 20 | > 20 | > 20 | –
C[Se][C@H]1[C@H](O)[C@@H](CO)O[C@H]1n1cnc2c(=O)[nH]c(N)nc21 | > 100 | > 100 | > 100 | > 100 | > 100 | > 100 | –
C[Se][C@H]1[C@H](O)[C@@H](COP(=O)(O)OP(=O)(O)OP(=O)(O)O)O[C@H]1n1cnc2c(N)ncnc21 | – | – | – | – | – | – | Activity [7]: Active; Activity [8]: Active; Activity [9]: Dose-Dependent Effect; Activity [10]: 70%; Activity [11]: inactive; Activity [12]: Active; Activity [13]: 77%; Activity [14]: Active; Activity [15]: inactive; Activity [16]: Tde; Activity [17]: Active; Activity [18]: Dose-Dependent Effect; Activity [19]: Active; Activity [20]: 94%; Activity [21]: 80%
C[Se][C@H]1[C@H](O)[C@@H](CO)O[C@H]1n1cc(C)c(=O)[nH]c1=O | 0.72 | – | 0.25 | – | – | – | –
C[Se][C@H]1[C@H](O)[C@@H](COP(=O)(N[C@@H](C)C(=O)OC(C)C)Oc2ccccc2)O[C@H]1n1cnc2c(N)ncnc21 (stereo not given in full) | > 100 | 3.7 | > 100 | 3.8 | 6.8 | 7 | –
Nc1ncnc2c1ncn2[C@H]1C[C@H](O)[C@@H](COP(=O)(O)OP(=O)(O)OP(=O)(O)O)O1 | – | – | – | – | – | – | Activity [22]: Tde
C[Se][C@H]1[C@H](O)[C@@H](COP(=O)(N[C@@H](C)C(=O)OC(C)C)Oc2ccccc2)O[C@H]1n1cnc2c(=O)[nH]c(N)nc21 (stereo not given in full) | 51 | > 20 | 63 | – | – | – | –
CCCC(CC)OC(=O)[C@H](C)N[P@](=O)(OC[C@H]1O[C@@H](n2cnc3c(N)ncnc32)[C@@H]([Se]C)[C@@H]1O)Oc1ccccc1 (stereo not given in full) | > 100 | 2.6 | > 100 | – | 4.4 | 5.5 | –
COc1nc(N)nc2c1ncn2[C@@H]1O[C@H](COP(=O)(N[C@@H](C)C(=O)OC(C)C)Oc2ccccc2)[C@@H](O)[C@@H]1[Se]C (stereo not given in full) | > 100 | 54 | > 100 | 61 | 46 | 45 | –
C[Se][C@H]1[C@H](O)[C@@H](CO[P@@](=O)(N[C@@H](C)C(=O)OC(C)C)Oc2ccccc2)O[C@H]1n1cnc2c(N)ncnc21 | > 100 | 2.2 | > 100 | 2.8 | 5.7 | 5.8 | –
C[Se][C@H]1[C@H](O)[C@@H](CO)O[C@H]1n1cnc2c(N)ncnc21 | > 100 | > 100 | > 100 | > 100 | > 100 | > 100 | –
C[Se][C@H]1[C@H](O)[C@@H](CO)O[C@H]1n1cnc2c(N)nc(F)nc21 | 12 | > 20 | 29 | > 20 | > 20 | > 20 | –
Nc1ccn([C@@H]2CS[C@H](CO)O2)c(=O)n1 [LAMIVUDINE] | > 100 | 0.52 | > 100 | 9.8 | > 100 | 0.85 | –
Cc1cn([C@H]2C[C@H](N=[N+]=[N-])[C@@H](CO)O2)c(=O)[nH]c1=O [ZIDOVUDINE] | 51 | 0.03 | > 100 | 13 | 0.022 | 0.09 | –
C[Se][C@H]1[C@H](O)[C@@H](COP(=O)(N[C@@H](C)C(=O)OC(C)C)Oc2ccccc2)O[C@H]1n1cc(C)c(=O)[nH]c1=O (stereo not given in full) | 0.007 | – | 0.006 | – | – | – | –
C[Se][C@H]1[C@H](O)[C@@H](CO[P@@](=O)(N[C@@H](C)C(=O)OC(C)C)Oc2ccccc2)O[C@H]1n1cnc2c(N)nc(F)nc21 | > 100 | > 20 | 80 | – | – | – | –
C[Se][C@H]1[C@H](O)[C@@H](COP(=O)(N[C@@H](C)C(=O)OC(C)C)Oc2ccccc2)O[C@H]1n1ccc(=O)[nH]c1=O (stereo not given in full) | 0.007 | – | 0.004 | – | – | – | –
O=c1[nH]cnc2c1ncn2[C@H]1CC[C@@H](CO)O1 [DIDANOSINE] | > 100 | 4.2 | > 100 | 25 | 7.1 | 4.6 | –
C[Se][C@H]1[C@H](O)[C@@H](CO)O[C@H]1n1ccc(=O)[nH]c1=O | 0.006 | – | 0.005 | – | – | – | –
C[Se][C@H]1[C@H](O)[C@@H](COP(=O)(N[C@@H](C)C(=O)OC(C)C)Oc2ccccc2)O[C@H]1n1cnc2c(N)nc(N)nc21 (stereo not given in full) | 5.5 | > 0.8 | 2.8 | – | – | – | –
C[Se][C@H]1[C@H](O)[C@@H](CO)O[C@H]1n1cnc2c(N)nc(N)nc21 | > 100 | > 100 | > 100 | > 100 | > 100 | > 100 | –
Nc1ncnc2c1ncn2[C@H]1CC[C@@H](COP(=O)(O)OP(=O)(O)OP(=O)(O)O)O1 | – | – | – | – | – | – | Activity [17]: Active
